molecular target: human Kv1.3 (Homo sapiens (Human), UniProt P22001); test: Kv1.3 potency evaluation, automated patch clamp electrophysiology (QPatch HT) in CHO-Kv1.3 cells; type: cell-based; details: whole-cell QPatch HT, % inhibition of charge, step to +30 mV, four concentrations, N≥3 cells, read-out: hKv1.3 IC50
Procedure, shortened: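 Automated whole-cell patch clamp in CHO cells stably expressing human Kv1.3; steps from −80 to +30 mV (500 ms) at 0.067 Hz. Four cumulative concentrations after vehicle (0.1-0.3% DMSO); charge inhibition vs vehicle fitted by four-parameter logistic for IC50, N≥3 cells.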

Sequence of human Kv1.3 (P22001 whole entry): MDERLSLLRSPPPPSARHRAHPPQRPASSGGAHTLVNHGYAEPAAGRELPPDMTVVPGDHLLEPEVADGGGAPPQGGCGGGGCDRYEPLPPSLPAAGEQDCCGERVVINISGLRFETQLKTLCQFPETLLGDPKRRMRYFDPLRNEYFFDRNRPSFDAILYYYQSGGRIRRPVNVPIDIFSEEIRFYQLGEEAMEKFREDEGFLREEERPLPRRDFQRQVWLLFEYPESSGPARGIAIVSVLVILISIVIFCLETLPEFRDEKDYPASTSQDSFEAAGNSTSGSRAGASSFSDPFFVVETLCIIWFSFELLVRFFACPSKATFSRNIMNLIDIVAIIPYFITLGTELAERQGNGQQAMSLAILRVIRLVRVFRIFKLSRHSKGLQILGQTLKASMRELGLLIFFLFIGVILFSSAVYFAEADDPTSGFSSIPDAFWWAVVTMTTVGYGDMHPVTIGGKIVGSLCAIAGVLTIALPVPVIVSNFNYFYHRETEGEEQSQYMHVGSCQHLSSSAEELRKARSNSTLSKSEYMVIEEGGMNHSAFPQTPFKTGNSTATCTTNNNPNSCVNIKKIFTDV

| SMILES | IC50 [nM] |
| --- | --- |
| CC1(C)CC(NC(=O)[C@@]2(C)CN=C(C34CC(N(Cc5ccc(C(F)(F)F)cc5)S(=O)(=O)c5ccc(F)cc5)(C3)C4)N2)C1 (mixture of isomers) [Example 280] | 615 |
| CC1(C)N=C(C23CC(N(Cc4ccc(Cl)c(F)c4)S(=O)(=O)c4ccccc4)(C2)C3)N[C@H]1C(=O)N1CCC1 (mixture of isomers) [Example 282] | 706 |
| CC1(C)N=C(C23CC(N(Cc4ccc(Cl)c(Cl)c4)S(=O)(=O)c4ccccc4)(C2)C3)N[C@H]1C(=O)N1CCC2(COC2)C1 (mixture of isomers) [Example 283] | 749 |
| C[C@@]1(C(=O)NCC2CCCCC2)CN=C(C23CC(N(Cc4ccc(C(F)(F)F)cc4)S(=O)(=O)c4ccc(F)cc4)(C2)C3)N1 (mixture of isomers) [Example 285] | 802 |
| CC1(C)N=C(C23CC(N(Cc4ccc(Cl)cc4)S(=O)(=O)c4cc(C(F)(F)F)ccc4O)(C2)C3)N[C@H]1C(=O)NCCC(F)(F)F (mixture of isomers) [Example 286] | 859 |
| CC1(C)N=C(C23CC(N(Cc4ccc(Cl)cc4)S(=O)(=O)C(C)(C)C)(C2)C3)N[C@H]1C(=O)NCCC(F)(F)F (mixture of isomers) [Example 287] | 976 |
| C[C@@]1(C(=O)Nc2ccccc2)CN=C(C23CC(N(Cc4ccc(C(F)(F)F)cc4)S(=O)(=O)c4ccc(F)cc4)(C2)C3)N1 (mixture of isomers) [Example 288] | 1020 |
| CC1(C)CC(CNC(=O)[C@@]2(C)CN=C(C34CC(N(Cc5ccc(C(F)(F)F)cc5)S(=O)(=O)c5ccc(F)cc5)(C3)C4)N2)C1 (mixture of isomers) [Example 289] | 1060 |
| C[C@]1(C(=O)NCC2CCCCC2)CN=C(C23CC(N(Cc4ccc(C(F)(F)F)cc4)S(=O)(=O)c4ccc(F)cc4)(C2)C3)N1 (mixture of isomers) [Example 290] | 1060 |
| CC1(C)N=C(C23CC(N(Cc4ccc(Cl)cc4)S(=O)(=O)c4ncc[nH]4)(C2)C3)N[C@H]1C(=O)NCCC(F)(F)F (mixture of isomers) [Example 291] | 1120 |
| CC1(C)N=C(C23CC(N(Cc4ccc(Cl)cc4)S(=O)(=O)c4ccccc4C(N)=O)(C2)C3)N[C@H]1C(=O)NCCC(F)(F)F (mixture of isomers) [Example 292] | 2950 |
| C[C@]1(C(=O)Nc2ccccc2)CN=C(C23CC(N(Cc4ccc(C(F)(F)F)cc4)S(=O)(=O)c4ccc(F)cc4)(C2)C3)N1 (mixture of isomers) [Example 293] | 4080 |
| CC1(C)N=C(C23CC(N(Cc4ccc(Cl)cc4)S(=O)(=O)CCO)(C2)C3)N[C@H]1C(=O)NCCC(F)(F)F (mixture of isomers) [Example 294] | 10500 |
| CC1(C)N=C(C23CC(N(Cc4ccc(Cl)cc4)S(=O)(=O)c4ccc[nH]c4=O)(C2)C3)N[C@H]1C(=O)NCCC(F)(F)F (mixture of isomers) [Example 295] | 21400 |
| CC1(C)N=C(C23CC(N(Cc4ccc(C(F)(F)F)cc4)S(=O)(=O)c4ccc(F)cc4)(C2)C3)NC1C(=O)NCC1(O)CCC1 (stereo not drawn) [Example 271] | 494 |
| CCCC1(C(=O)NCC2CCC2)CN=C(C23CC(N(Cc4ccc(C(F)(F)F)cc4)S(=O)(=O)c4ccc(F)cc4)(C2)C3)N1 (stereo not drawn) [Example 273] | 552 |
| CN(C)C(=O)[C@H]1CN=C(C23CC(N(Cc4ccc(C(F)(F)F)cc4)S(=O)(=O)c4ccc(F)cc4)(C2)C3)N1 [Example 277] | 593 |
| O=C(NCC1CCC1)C1(Cc2ccccc2)CN=C(C23CC(N(Cc4ccc(C(F)(F)F)cc4)S(=O)(=O)c4ccc(F)cc4)(C2)C3)N1 (stereo not drawn) [Example 279] | 608 |
| CC([C@@H]1CN=C(C23CC(N(Cc4ccc(C(F)(F)F)cc4)S(=O)(=O)c4ccc(F)cc4)(C2)C3)N1)N(C)C (stereo partly drawn) [Example 281] | 632 |
| CC(C)CC1(C(=O)NCC2CCC2)CN=C(C23CC(N(Cc4ccc(C(F)(F)F)cc4)S(=O)(=O)c4ccc(F)cc4)(C2)C3)N1 (stereo not drawn) [Example 284] | 787 |

The next molecules have a lower IC50 than those just listed; values first:

| IC50 [nM] | SMILES |
| --- | --- |
| 35 | CC1(C)N=C(C23CC(N(Cc4ccc(Cl)c(F)c4)S(=O)(=O)c4ccccc4)(C2)C3)N[C@H]1C(=O)NC12CC(C1)C2 [Example 1, (R)-N-(Bicyclo[1.1.1]pentan-1-yl)-2-(3-(N-(4-chloro-3-fluorobenzyl)phenylsulfonamido)bicyclo[1.1.1]pentan-1-yl)-4,4-dimethyl-4,5-dihydro-1H-imidazole-5-carboxamide] |
| 138 | CC1(C)N=C(C23CC(N(Cc4ccc(Cl)c(Cl)c4)S(=O)(=O)c4ccccc4)(C2)C3)N[C@H]1C(=O)NCC(F)(F)C(F)(F)F [Example 5] |
| 66 | CC1(C)N=C(C23CC(N(Cc4ccc(F)cc4)S(=O)(=O)c4ccccc4)(C2)C3)NC1C(=O)NCCC(F)(F)F (stereo not drawn) [Example 97] |
| 88 | CC1(C)N=C(C23CC(N(Cc4ccc(C(F)(F)F)cc4)S(=O)(=O)c4ccc(F)cc4)(C2)C3)N[C@H]1C(=O)NCC1(F)CCC1 [Example 145] |
| 89 | CC1(C)N=C(C23CC(N(Cc4ccc(Cl)cc4)S(=O)(=O)c4ccccc4)(C2)C3)NC1C(=O)NCCC(F)(F)F (stereo not drawn) [Example 148] |
| 94 | CC1(C)N=C(C23CC(N(Cc4ccc(C(F)(F)F)cc4)S(=O)(=O)c4ccc(F)cc4)(C2)C3)NC1C(=O)N1CCCCC1 (stereo not drawn) [Example 157] |
| 98 | CC1(C)N=C(C23CC(N(Cc4ccc(C(F)(F)F)cc4)S(=O)(=O)c4ccc(F)cc4)(C2)C3)NC1C(=O)NCC1CC1(F)F (stereo not drawn) [Example 161] |
| 99 | CC1(C)N=C(C23CC(N(Cc4ccc(C(F)(F)F)cc4)S(=O)(=O)c4ccc(F)cc4)(C2)C3)NC1C(=O)NCC1(C#N)CCC1 (stereo not drawn) [Example 164] |
| 108 | CCCC1(C(=O)NC(C)C)CN=C(C23CC(N(Cc4ccc(C(F)(F)F)cc4)S(=O)(=O)c4ccc(F)cc4)(C2)C3)N1 (stereo not drawn) [Example 182] |
| 110 | CC1(C)N=C(C23CC(N(Cc4ccc(C(F)(F)F)cc4)S(=O)(=O)c4ccc(F)cc4)(C2)C3)NC1C(=O)NCC1CC(F)(F)C1 (stereo not drawn) [Example 186] |
| 115 | CC1(C)N=C(C23CC(N(Cc4ccc(C(F)(F)F)cc4)S(=O)(=O)c4ccc(F)cc4)(C2)C3)NC1C(=O)NCC1CCC1 (stereo not drawn) [Example 192] |
| 115 | CC1(C)N=C(C23CC(N(Cc4ccc(C(F)(F)F)cc4)S(=O)(=O)c4ccc(F)cc4)(C2)C3)NC1C(=O)NCCC(F)(F)F (stereo not drawn) [Example 193] |
| 143 | CC(C)NC(=O)C1NC(C23CC(N(Cc4ccc(C(F)(F)F)cc4)S(=O)(=O)c4ccc(F)cc4)(C2)C3)=NC1(C)C (stereo not drawn) [Example 208] |
| 169 | CC1(C)N=C(C23CC(N(Cc4ccc(C(F)(F)F)cc4)S(=O)(=O)c4ccccc4)(C2)C3)NC1C(=O)NCCC(F)(F)F (stereo not drawn) [Example 220] |
| 178 | O=C(NCCC(F)(F)F)[C@@H]1NC(C23CC(N(Cc4ccc(C(F)(F)F)cc4)S(=O)(=O)c4ccc(F)cc4)(C2)C3)=NC12CC2 [Example 224] |
| 199 | O=C(NCC1CCC1)C1NC(C23CC(N(Cc4ccc(C(F)(F)F)cc4)S(=O)(=O)c4ccc(F)cc4)(C2)C3)=NC12CCC2 (stereo not drawn) [Example 229] |
| 208 | CC1(NC(=O)C2NC(C34CC(N(Cc5ccc(C(F)(F)F)cc5)S(=O)(=O)c5ccc(F)cc5)(C3)C4)=NC2(C)C)CCC1 (stereo not drawn) [Example 232] |
| 213 | CC1(C)N=C(C23CC(N(Cc4ccc(C(F)(F)F)cc4)S(=O)(=O)c4ccc(F)cc4)(C2)C3)NC1C(=O)N1CCC(F)(F)CC1 (stereo not drawn) [Example 236] |
| 217 | COC1(CNC(=O)C2NC(C34CC(N(Cc5ccc(C(F)(F)F)cc5)S(=O)(=O)c5ccc(F)cc5)(C3)C4)=NC2(C)C)CCC1 (stereo not drawn) [Example 237] |
| 230 | O=C(NCC1CCC1)C1NC(C23CC(N(Cc4ccc(C(F)(F)F)cc4)S(=O)(=O)c4ccc(F)cc4)(C2)C3)=NC12CC2 (stereo not drawn) [Example 239] |
| 400 | NC(=O)C1(Cc2ccccc2)CN=C(C23CC(N(Cc4ccc(C(F)(F)F)cc4)S(=O)(=O)c4ccc(F)cc4)(C2)C3)N1 (stereo not drawn) [Example 263] |
| 415 | CC(C)C1(C(=O)NCC2CCC2)CN=C(C23CC(N(Cc4ccc(C(F)(F)F)cc4)S(=O)(=O)c4ccc(F)cc4)(C2)C3)N1 (stereo not drawn) [Example 266] |
